Read-outs that look alike come from different tables or passages of the source.
Tests used:
[1] = Anti-miR amounts in liver tissue after oral or s.c. administration; format: in vivo, mice; conditions: single dose, four days later
Procedure: (§1) Anti-miR compounds were delivered in PBS for subcutaneous administration. Orally administered anti-miR compounds were prepared in a solution of PBS and 0.3 M sodium bicarbonate (BC) was added to a pH of 9.5. For oral dosing, animals were fasted for 12 hours prior. For all treatment groups, mice were administered a single dose and sacrificed four days later. Liver tissue was collected for pharmacodynamic and pharmacokinetic analyses. RNA was isolated from liver and kidney. […] in the liver was measured.

[2] = system: miR-122; assay: Pharmacodynamic activity in liver after oral or s.c. administration (ALDOA); format: in vivo, mice; conditions: 30 mg/kg s.c. in PBS, single dose, four days later
Procedure: An experiment was performed to determine whether oral administration of RG6650 would results in pharmacodynamic modulation of miR-122 in liver. Also tested was RG7443, the unconjugated anti-miR of RG6650. While an unconjugated anti-miR-122 is not as effective as a GalNAc-conjugated for the inhibition of miR-122 in the treatment of HCV, it was included for comparison in the oral administration study.
as §1

[3] = system: miR-122; assay: In vivo potency: liver ALDOA mRNA derepression; conditions: single subcutaneous dose, liver after 7 days; for ALDOA derepression ED50 Expt #1: fold change in ALDOA mRNA relative to saline
Procedure: Inhibition of miR-122 leads to an increase in ALDOA expression, thus ALDOA mRNA levels can be used to measure miR-122 inhibitory activity in vivo.
(§2) Only GalNAc-conjugated compounds were tested in this assay. Compounds were administered at molar equivalents with regard to the anti-miR portion of the compound. A single, subcutaneous dose of RG-101 was administered subcutaneously at doses ranging from 0.004 to 1.116 umol/kg. Other compounds were administered in a single subcutaneous dose at doses ranging from 0.006 to 1.942 umol/kg. After 7 days the study was terminated. Liver tissue was collected for measurement of ALDOA mRNA and drug levels. Kidney tissue was collected for measurement of drug levels. Blood was collected for measurement of cholesterol.
ALDOA mRNA levels were measured, by quantitative PCR, in RNA isolated from liver. The fold change in ALDOA mRNA, relative to saline, was used to calculate an ED50 (umol/kg) for each compound (“ND” indicates “not determined), as shown in Table 4.

[4] = system: HCV GT1b replicon; assay: HCV replicon assay (Huh7 cells, luciferase reporter); format: cell-based, HCV genotype 1b
Excerpt: An HCV replicon assay was used to determine the ability of anti-miR-122 compounds to inhibit the replication of HCV genotype 1b. In this assay, test compounds are introduced into Huh7 cells stably transfected with a HCV GT1b replicon containing a luciferase reporter gene. The luciferase reporter is used as an indirect measure of HCV replication. While a GalNAc-conjugated compound is expected to be preferable for treatment of HCV infection, due to the enhanced delivery to hepatocytes, some unconjugated compounds were tested.
Selected compounds were tested at nine concentrations ranging from 0.015 uM to 100 uM. GS-7977 (sofosbuvir) was included as a positive control. Cells were plated into 96-well plates at a density of 8,000 cells per well. Compound was added to the cells for a period of 72 hours. Luminescent signal in the supernatant was detected using the Bright-Glo reagent, and used to calculate the antiviral activity of each compound. The CellTiter-Fluor reagent was used to assess cell viability. The EC50 (concentration at which 50% inhibition was observed) was calculated.

[5] = target: T1, MRP2 transporter (Homo sapiens, UniProt Q92887); assay: In vitro MRP2 transporter assay (inside-out membrane vesicles, [3H]-estradiol-17β-glucuronide); format: in vitro ADME
T1 construct: expressed in transfected cells; host or cells: insect cells (transiently transfected); inside-out membrane vesicles
Procedure: To test the hypothesis that RG-101 was interfering with MRP2 transporter activity, an in vitro assay was performed per methods known in the art (see, for example, Vermeer et al., Drug Metab. Dispos., 2016, 44(3):453-9). In this assay, an efflux transporter-expressing vesicle is used to evaluate if a drug is a substrate or inhibitor of a transporter. Inside-out membrane vesicles are prepared from insect cells transiently transfected with a single efflux transporter, in this case MRP2. As the vesicles are in an inside-out orientation, the MRP2 transporter pumps radiolabeled substrate, [3H]-estradiol-17β-glucuronide, in an ATP-dependent manner, into the vesicles, and the accumulation of radiolabeled substrate inside the vesicle is measured. If a compound is an MRP2 transport inhibitor, the accumulation of radiolabeled substrate will be reduced relative to control samples. The inhibitory effect of the compound is evaluated by determining the IC50, the concentration resulting in 50% inhibition of transporter-mediated uptake of the radiolabeled substrate.
The in vitro MRP2 assay was performed for RG-101. Both RG-101, and RG1649, the unconjugated anti-miR of RG-101, were tested at concentrations of 0, 0.1, 0.3, 1, 3, 10, 30, and 100 uM. […] Thus, RG-101 inhibited the MPR2 transporter in this assay.
The MRP2 assay was performed for anti-miR-122 compounds selected based on potency in the HCV replicon assay and structural diversity.

[6] = system: cholesterol; assay: In vivo potency: cholesterol reduction; conditions: single subcutaneous dose (doses in umol/kg), blood after 7 days
Procedure: as §2

[7] = system: IFIT; assay: In vivo safety: liver expression of interferon-inducible gene IFIT
Procedure: The compounds that met the criteria for in vivo potency were also tested for safety. The capacity of a compound to trigger a pro-inflammatory response was assessed by measuring the expression of the interferon-inducible gene IFIT in the liver. Additionally, the level of ALT following administration of a compound was also measured.

[8] = system: miR-122; assay: Free uptake in primary human hepatocyte 3D spheroids, ALDOA by RT-PCR; format: cell-based
[9] = system: miR-122; assay: Onset of action: liver ALDOA mRNA de-repression; format: in vivo, mice; conditions: 0.014 to 1.117 umol/kg; liver 1, 3, 7 or 14 days after administration; relative to RG2634
Procedure: To determine whether RG6650 and RG2634 could be distinguished by onset of action, groups of mice were treated with compound at doses ranging from 0.014 to 1.117 umol/kg. Liver tissue was collected from groups of 4 to 5 mice 1, 3, 7, or 14 days following administration. RNA was isolated and ALDOA mRNA was measured.

[10] = system: HCV genotype 1a; assay: Human chimeric liver mouse model of HCV infection, serum HCV RNA; format: in vivo, mice; conditions: RG6650 60 mg/kg, single administration
Excerpt: Due to host-pathogen specificity, HCV can only infect humans and chimpanzees. As such, smaller species, such as mice, that are typically used for experimental in vivo studies cannot be infected with HCV for testing of candidate agents for the treatment of HCV infection. To address this problem, human liver chimeric mouse models may be utilized (see, e.g., Bissig et al., Proc Nat Acad Sci US A, 2007, 104:20507-20511; Bissig et al., J Clin Invest., 2010, 120: 924-930). In this model, the livers of immunodeficient mice are repopulated with human hepatocytes, resulting in a chimeric liver in which most of the hepatocytes are human hepatocytes. The mice are then infected with HCV and treated with anti-HCV agents. This mouse model is commercially available from, for example, PhoenixBio.
Anti-miR-122 compounds were tested in a human chimeric liver mouse model of HCV infection. The livers of immunodeficient mice were repopulated with human hepatocytes, resulting in a chimeric liver in which most of the hepatocytes are human hepatocytes. Six weeks following inoculation with HCV genotype 1a, a baseline viral titer was obtained for each animal included in the study.
Groups of four animals each were treated with PBS, RG-101 at a dose of 45 mg/kg, or RG6650 at a dose of 60 mg/kg. Blood was collected on Days 3, 7, 10, 14, 21, 28, 35, 42, and 49. The study was terminated on day 49.

[11] = system: HCV; conditions: chronic treatment naïve HCV infected subjects; cited from earlier work
[12] = 72 hours, Expt #1, read-out: EC50 uM Expt #1
[13] = MRP2 transporter assay, Expt #2, read-out: IC50 uM Expt #2

T1 sequence (Q92887 whole entry): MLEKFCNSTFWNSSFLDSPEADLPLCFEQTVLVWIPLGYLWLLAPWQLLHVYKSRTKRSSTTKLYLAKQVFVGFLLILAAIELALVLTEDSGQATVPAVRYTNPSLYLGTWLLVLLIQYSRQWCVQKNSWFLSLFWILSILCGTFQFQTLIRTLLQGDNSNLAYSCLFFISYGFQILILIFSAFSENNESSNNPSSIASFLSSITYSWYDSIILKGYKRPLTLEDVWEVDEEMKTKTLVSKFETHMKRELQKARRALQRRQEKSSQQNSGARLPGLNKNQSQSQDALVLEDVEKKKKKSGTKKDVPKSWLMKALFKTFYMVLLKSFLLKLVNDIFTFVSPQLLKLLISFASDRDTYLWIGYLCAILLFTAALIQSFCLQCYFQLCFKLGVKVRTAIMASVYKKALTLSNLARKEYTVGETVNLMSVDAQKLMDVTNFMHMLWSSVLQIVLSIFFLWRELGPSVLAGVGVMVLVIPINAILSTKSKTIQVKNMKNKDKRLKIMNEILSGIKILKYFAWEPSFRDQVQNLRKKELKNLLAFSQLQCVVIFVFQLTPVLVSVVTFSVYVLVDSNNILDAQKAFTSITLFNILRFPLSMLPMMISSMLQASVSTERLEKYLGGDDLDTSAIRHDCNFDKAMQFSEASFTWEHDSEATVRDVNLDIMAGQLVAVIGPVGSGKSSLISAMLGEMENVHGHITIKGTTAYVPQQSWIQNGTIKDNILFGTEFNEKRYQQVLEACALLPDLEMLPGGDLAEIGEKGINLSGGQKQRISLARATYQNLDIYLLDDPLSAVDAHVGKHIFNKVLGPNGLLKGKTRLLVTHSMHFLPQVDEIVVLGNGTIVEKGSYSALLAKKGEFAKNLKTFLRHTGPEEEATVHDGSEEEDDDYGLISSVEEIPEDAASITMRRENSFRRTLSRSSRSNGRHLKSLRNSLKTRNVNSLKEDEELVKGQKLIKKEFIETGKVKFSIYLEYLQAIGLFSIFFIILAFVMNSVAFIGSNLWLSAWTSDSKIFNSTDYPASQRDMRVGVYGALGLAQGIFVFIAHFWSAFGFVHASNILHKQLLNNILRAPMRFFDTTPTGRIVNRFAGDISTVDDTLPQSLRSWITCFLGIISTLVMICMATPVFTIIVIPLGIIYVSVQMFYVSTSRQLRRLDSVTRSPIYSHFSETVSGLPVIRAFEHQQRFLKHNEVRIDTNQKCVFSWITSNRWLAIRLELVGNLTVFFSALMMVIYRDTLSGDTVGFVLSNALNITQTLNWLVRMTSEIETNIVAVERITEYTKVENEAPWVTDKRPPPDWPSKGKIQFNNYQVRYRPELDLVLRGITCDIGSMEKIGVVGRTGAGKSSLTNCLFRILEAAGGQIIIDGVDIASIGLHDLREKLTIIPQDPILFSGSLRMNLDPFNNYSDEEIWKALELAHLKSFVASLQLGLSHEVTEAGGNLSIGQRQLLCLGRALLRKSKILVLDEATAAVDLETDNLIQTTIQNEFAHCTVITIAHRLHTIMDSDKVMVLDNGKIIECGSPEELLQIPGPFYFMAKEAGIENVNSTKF

UsCsACsACsTCsCs [RG7443]
Liver Mean (anti-miR amount) ([1]; 30 mg/kg s.c. in PBS): 1.48 µg/g | Liver Mean (anti-miR amount) ([1]; 100 mg/kg p.o. in BC): <0.4 µg/g | Liver PD Sig [2]: 1.945

CsASCSASCSUSCSCSAS [RG6370]
ALDOA derepression ED50 Expt #1 [3]: 6.51 µmol/kg | EC50 [4, 12]: 60.9 µM | IC50 [5, 13]: > 100 µM | Cholesterol reduction ED50 Expt #1 [6]: 0.0007 | Expression of IFIT in the liver (pro-inflammatory response) [7]: increased the expression of IFIT

USCSACSACSTCSCS [RG6650]
ALDOA derepression ED50 Expt #2 ([3]; Expt #2): 0.091 µmol/kg | EC50 ([4]; 72 hours, Expt #2, read-out: EC50 uM Expt #2): 11.3 µM | EC50 ([8]; 3D PHH spheroids, three days treatment, read-out: EC50 (ALDOA levels)): 0.00207 µM | Decrease of EC50 by the GalNAc conjugate ([8]; RG6650 compared to RG7443): ~1000 fold | IC50 ([5]; MRP2 transporter assay, Expt #1, read-out: IC50 uM Expt #1): > 100 µM | IC50 ([5]; assay conducted multiple times, read-out: MRP2 IC50 range over multiple studies): > 100 µM | Onset of action by ALDOA mRNA de-repression [9]: increased de-repression of ALDOA mRNA at a lower dose and earlier time point | Cholesterol reduction ED50 Expt #2 ([6]; Expt #2): 0.025 | Liver PD Sig [2]: 1.704 | Reduction in serum HCV RNA [10]: greater than 2 log | Viral titer, serum HCV RNA ([10]; RG-101 45 mg/kg, up to day 49, FIG. 1): significant reductions in viral titer

CSASCSASCSUSCSCSAS [RG6234]
EC50 [4, 12]: 17.4 µM | IC50 [5, 13]: > 100 µM

CSASCSASCSUSCSCS [RG2634]
ALDOA derepression ED50 Expt #1 [3]: 0.029 µmol/kg | EC50 [4, 12]: 22.5 µM | IC50 [5, 13]: > 100 µM | Cholesterol reduction ED50 Expt #1 [6]: 0.011

USCSAS^POCS^POAS^POCS^POUSCSCS [RG6372]
ALDOA derepression ED50 Expt #1 [3]: 0.028 µmol/kg | EC50 [4, 12]: > 100 µM | Cholesterol reduction ED50 Expt #1 [6]: 0.8088

miravirsen
Serum HCV RNA [11]: reduction in serum HCV RNA

USCSASCSASCSUSCSCS [RG3054]
EC50 [4, 12]: > 100 µM | IC50 [5, 13]: > 100 µM | Cholesterol reduction ED50 Expt #1 [6]: .08152 | Expression of IFIT in the liver (pro-inflammatory response) [7]: increased the expression of IFIT

CC(C)OC(=O)[C@H](C)N[P@](=O)(OC[C@H]1O[C@@H](n2ccc(=O)[nH]c2=O)[C@](C)(F)[C@@H]1O)Oc1ccccc1 [GS-7977, sofosbuvir, reference compound]
EC50 ([4]; Hepatitis C virus, GT1B, Huh-7, 72 hours, Expt #1, read-out: EC50 uM Expt #1): 0.149 µM | EC50 ([4]; Hepatitis C virus, GT1B, Huh-7, 72 hours, Expt #2, read-out: EC50 uM Expt #2): 0.098 µM

CSASCS^POAS^POCS^POUS^POCSCSAS [RG6371]
ALDOA derepression ED50 Expt #1 [3]: 0.086 µmol/kg | EC50 [4, 12]: 34.1 µM | Cholesterol reduction ED50 Expt #1 [6]: 1.116

CSASCSASCSUSCSCS [RG497998]
EC50 [4, 12]: 7.71 µM
